Test results as given in patent US20250295652A1, “Inhibitors of Molluscum Contagiosum Infection and Methods Using the Same” (priority 2021, published 2025).

Legend:
[1] = system: mD4-VV surrogate virus; assay: microbe, parasite or virus in culture; assay type: cell-based, mD4/vaccinia hybrid virus; conditions: Hybrid virus, BSC-1, read-out: mD4 EC50
[2] = biological target: E9/A20/D4 proteins (molluscum mD4) (Molluscum contagiosum virus, UniProt Q98260); assay: biochemical
[3] = system: VV; assay: microbe, parasite or virus in culture; assay type: cell-based, vaccinia virus; conditions: Orthopoxvirus vaccinia, BSC-1, read-out: VV EC50

Chain of E9/A20/D4 proteins (molluscum mD4) (Q98260 1-226): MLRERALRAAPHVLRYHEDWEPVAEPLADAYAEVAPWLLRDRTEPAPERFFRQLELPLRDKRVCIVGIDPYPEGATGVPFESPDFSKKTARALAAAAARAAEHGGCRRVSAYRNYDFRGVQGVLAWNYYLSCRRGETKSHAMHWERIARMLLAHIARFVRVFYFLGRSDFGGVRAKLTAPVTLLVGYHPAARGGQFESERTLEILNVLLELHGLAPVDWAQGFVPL

SMILES	EC50 [1] [µM]	IC50 [2] [µM]	EC50 [3] [µM]
CCC(C(=O)Nc1snnc1-c1ccc(C(F)(F)F)cc1)c1ccccc1 (stereo not shown) [Compound 109, 2-Phenyl-N-[4-(4-trifluoromethyl-phenyl)-[1,2,3]thiadiazol-5-yl]-butyramide]	0.8	68.6	
O=C(NCc1ccc(F)cc1)c1ccsc1NC(=O)N1CCN(c2ccccn2)CC1 [Compound 181, N-(3-(4-Fluorobenzylcarbamoyl)thiophen-2-yl)-4-(pyridin-2-yl)piperazine-1-carboxamide]	16	135	
O=C(NCc1ccc(F)cc1)c1nnsc1NC(=O)N1CCN(c2ccccn2)CC1 [Compound 180, N-(4-(4-Fluorobenzylcarbamoyl)-1,2,3-thiadiazol-5-yl)-4-(pyridin-2-yl)piperazine-1-carboxamide]	12.9	39	
CCC(C(=O)Nc1scnc1C(=O)NCc1ccc(Cl)cc1)c1ccccc1 (stereo not shown) [Compound 163, 5-(2-Phenylbutanamido)-N-(4-chlorobenzyl)thiazole-4-carboxamide]	12.1	> 100	
COc1ccccc1CN(C)C(=O)c1ccsc1NC(=O)N1CCN(c2ccccn2)CC1 [Compound 172, N-(3-(N-(2-Methoxybenzyl)-N-methylcarbamoyl)thiophen-2-yl)-4-(pyridin-2-yl)piperazine-1-carboxamide]	22.6	117	
O=C(NCc1ccc(Cl)cc1)c1nnsc1NC(=O)N1CCN(c2ccccc2F)CC1 [Compound 168, 4-(2-Fluoro-phenyl)-piperazine-1-carboxylic acid [4-(4-chloro-benzylcarbamoyl)-[1,2,3]thiadiazol-5-yl]-amide]	11.9	26.3	
O=C(NCCc1ccccn1)Nc1snnc1C(=O)NCc1ccc(F)cc1 [Compound 184, 1-(4-(4-Fluorobenzylcarbamoyl)-1,2,3-thiadiazol-5-yl)-3-(2-(pyridin-2-yl)ethyl)urea]	22.8	60	
CCC(C(=O)Nc1sccc1C(=O)NCc1ccccc1)c1ccccc1 (stereo not shown) [Compound 161, 2-(2-Phenylbutanamido)-N-benzylthiophene-3-carboxamide]	12	140	
CCC(C(=O)Nc1sccc1C(=O)NCc1ccc(Cl)cc1)c1ccccc1 (stereo not shown) [Compound 110, 2-(2-Phenylbutanamido)-N-(4-chlorobenzyl)thiophene-3-carboxamide]	8	> 100	
CCC(C(=O)Nc1sccc1C(=O)NCc1ccc(F)cc1)c1ccccc1 (stereo not shown) [Compound 179, 2-(2-Phenylbutanamido)-N-(4-fluorobenzyl)thiophene-3-carboxamide]	9.5	51.3	
O=C(NCc1ccc(Cl)cc1)c1nnsc1NC(=O)N1CCN(c2ccccc2)CC1 [Compound 84, N-(4-chlorobenzyl)-5-(4-phenylpiperazine-1-carboxamido)-1,2,3-thiadiazole-4-carboxamide]	10		9.4
Cc1c(C(N)=O)sc(NC(=O)C2CCCC2)c1C#N [Compound 40, 4-cyano-5-(cyclopentanecarboxamido)-3-methylthiophene-2-carboxamide]			47.4
Cc1c(C(N)=O)sc(N(C(=O)C2CCCc3ccccc32)C(=O)C2CCCc3ccccc32)c1C#N (stereo not shown) [Compound 47, 5-[Bis-(1,2,3,4-tetrahydro-naphthalene-1-carbonyl)-amino]-4-cyano-3-methyl-thiophene-2-carboxylic acid amide]			20
O=C(NCc1ccccc1)c1nnsc1NC(=O)N1CCN(c2ccccn2)CC1 [Compound 119, 4-Pyridin-2-yl-piperazine-1-carboxylic acid (4-benzylcarbamoyl-[1,2,3]thiadiazol-5-yl)-amide]	10.3	> 100	
O=C(NCc1ccc(F)c(F)c1)c1ccsc1NC(=O)N1CCN(c2ccccn2)CC1 [Compound 159, N-(3-(3,4-Difluorobenzylcarbamoyl)thiophen-2-yl)-4-(pyridin-2-yl)piperazine-1-carboxamide]	12.8	118	
O=C(NCCN1CCOCC1)Nc1snnc1C(=O)NCc1ccc(F)cc1 [Compound 182, 1-(4-(4-Fluorobenzylcarbamoyl)-1,2,3-thiadiazol-5-yl)-3-(2-morpholinoethyl)urea]	12.4	> 100	
O=C(NCCN1CCOCC1)Nc1snnc1C(=O)NCc1ccc(Cl)cc1 [Compound 183, 1-(4-(4-Chlorobenzylcarbamoyl)-1,2,3-thiadiazol-5-yl)-3-(2-morpholinoethyl)urea]	11.9	> 100	
CCOC(=O)c1sc(NC(=O)C(CC)c2ccccc2)c(C(N)=O)c1C (stereo not shown) [Compound 19, ethyl 4-carbamoyl-3-methyl-5-(2-phenylbutanamido)thiophene-2-carboxylate]			31.3
O=C(NCCc1ccccn1)Nc1snnc1C(=O)NCc1ccc(Cl)cc1 [Compound 185, 1-(4-(4-Chlorobenzylcarbamoyl)-1,2,3-thiadiazol-5-yl)-3-(2-(pyridin-2-yl)ethyl)urea]	9.6	64.7	
CCC(C(=O)Nc1ncc(C(=O)OC)s1)c1ccccc1 (stereo not shown) [Compound 77, methyl 2-(2-phenylbutanamido)thiazole-5-carboxylate]			21.4

SMILES	EC50 [1] [µM]	IC50 [2] [µM]	EC50 [3] [µM]
Cc1nsc(NC(=O)C2CCc3ccccc32)c1C#N (stereo not shown) [Compound 87, Indan-1-carboxylic acid (4-cyano-3-methyl-isothiazol-5-yl)-amide]			17
O=C(NCc1ccc(Cl)nc1)c1ccsc1NC(=O)N1CCN(c2ccccn2)CC1 [Compound 170, N-(3-((6-Chloropyridin-3-yl)methylcarbamoyl)thiophen-2-yl)-4-(pyridin-2-yl)piperazine-1-carboxamide]	14.9	> 200	
CCC(C(=O)Nc1snc(C)c1C#N)c1ccccc1 (stereo not shown) [Compound 68, N-(4-Cyano-3-methyl-isothiazol-5-yl)-2-phenyl-butyramide]			8.6
COc1ccc(N2CCN(C(=O)Nc3snnc3C(=O)NCc3ccc(Cl)cc3)CC2)cc1 [Compound 86, N-(4-chlorobenzyl)-5-(4-(4-methoxyphenyl)piperazine-1-carboxamido)-1,2,3-thiadiazole-4-carboxamide]			32.6
COC(=O)c1c(NC(=O)C(Cc2ccccc2)N2C(=O)c3ccccc3C2=O)sc(C(N)=O)c1C (stereo not shown) [Compound 33, 5-Carbamoyl-2-[2-(1,3-dioxo-1,3-dihydro-isoindol-2-yl)-3-phenyl-propionylamino]-4-methyl-thiophene-3-carboxylic acid methyl ester]			43.6
O=C(NCc1ccc(Cl)cc1)c1nnsc1NC(=O)N1CCN(c2ccccn2)CC1 [Compound 83, N-(4-chlorobenzyl)-5-(4-(pyridin-2-yl)piperazine-1-carboxamido)-1,2,3-thiadiazole-4-carboxamide]	7.7	31.4	7.3
Cc1c(C(N)=O)sc(NC(=O)C2CCc3cc(Cl)ccc32)c1C#N (stereo not shown) [Compound 50, 5-[(5-Chloro-indane-1-carbonyl)-amino]-4-cyano-3-methyl-thiophene-2-carboxylic acid amide]			33
CCC(C(=O)Nc1scc(C)c1C(=O)OC)c1ccccc1 (stereo not shown) [Compound 32, 4-Methyl-2-(2-phenyl-butyrylamino)-thiophene-3-carboxylic acid methyl ester]			32.9
CCOC(=O)c1sc(NC(=O)C(CC)c2ccccc2)cc1C (stereo not shown) [Compound 72, ethyl 3-methyl-5-(2-phenylbutanamido)thiophene-2-carboxylate]			19.1
CCC(C(=O)Nc1sccc1C(=O)NCc1ccc(F)c(F)c1)c1ccccc1 (stereo not shown) [Compound 160, 2-(2-Phenylbutanamido)-N-(3,4-difluorobenzyl)thiophene-3-carboxamide]	10.6	128	
O=C(NCc1ccc(Cl)cc1)c1nnsc1NC(=O)C1CCN(c2ccccn2)CC1 [Compound 167, N-(4-(4-Chlorobenzylcarbamoyl)-1,2,3-thiadiazol-5-yl)-1-(pyridin-2-yl)piperidine-4-carboxamide]	17.8	98.6	
CCC(C(=O)Nc1sc(C(=O)OC)cc1C#N)c1ccccc1 (stereo not shown) [Compound 82, Methyl 5-(2-phenylbutanamido)-4-cyanothiophene-2-carboxylate]			11
CCC(C(=O)Nc1snc(C)c1C(=O)OC)c1ccccc1 (stereo not shown) [Compound 89, 3-Methyl-5-(2-phenyl-butyrylamino)-isothiazole-4-carboxylic acid methyl ester]			29.3
CC[C@@H](C(=O)Nc1sc(C(N)=O)c(C)c1C(=O)OC)c1ccccc1 [Compound 16, methyl (R)-5-carbamoyl-4-methyl-2-(2-phenylbutanamido)thiophene-3-carboxylate]			16.4
CCC(C(=O)Nc1sc(C)c(C)c1C(=O)OC)c1ccccc1 (stereo not shown) [Compound 26, methyl 4,5-dimethyl-2-(2-phenylbutanamido)thiophene-3-carboxylate]			45.3
CCC(C(=O)Nc1sc(C(N)=O)c(C)c1C(=O)OC)c1ccccc1 (single isomer, unassigned) [Compound 29, Methyl 2-(2-phenylbutanamido)-5-carbamoyl-4-methylthiophene-3-carboxylate]	19.7	13.4	28
CCC(C(=O)Nc1cc(C)ns1)c1ccccc1 (stereo not shown) [Compound 78, N-(3-methylisothiazol-5-yl)-2-phenylbutanamide]			41.7
COc1ccc(CN(Cc2ccc(OC)cc2)C(Cc2ccccc2)C(=O)Nc2sc(C(N)=O)c(C)c2C#N)cc1 (stereo not shown) [Compound 57, 5-(2-{Bis[(4-methoxyphenyl)methyl]amino}-3-phenylpropanamido)-4-cyano-3-methylthiophene-2-carboxamide]			20.8
CN(Cc1ccccc1)C(=O)c1ccsc1NC(=O)N1CCN(c2ccccn2)CC1 [Compound 173, N-(3-(N-Benzyl-N-methylcarbamoyl)thiophen-2-yl)-4-(pyridin-2-yl)piperazine-1-carboxamide]	11.9	> 200	
CCC(C(=O)Nc1sncc1C#N)c1ccccc1 (stereo not shown) [Compound 90, N-(4-Cyano-isothiazol-5-yl)-2-phenyl-butyramide]			21.8
